Assay results from patent EP4596561A1, “PHOSPHORUS-CONTAINING COMPOUND, PHARMACEUTICAL COMPOSITION AND USE THEREOF” (Suzhou Genhouse Bio Co., Ltd., priority 2022, dated 2024).
Blank lines part the entries; values can stand above or below the molecule they belong to.

What was measured:
[1] = target: T1, Cytochrome Oxidase P450 1A2 (Homo sapiens, UniProt P05177); test: Inhibition of cytochrome oxidase P450; assay type: in vitro ADME; details: liver microsomes
T1 construct: a biochemical reaction of prepared liver microsomes supplemented with a redox coenzyme; from tissue; host or cells: liver microsomes
T1 sequence (P05177 1-516): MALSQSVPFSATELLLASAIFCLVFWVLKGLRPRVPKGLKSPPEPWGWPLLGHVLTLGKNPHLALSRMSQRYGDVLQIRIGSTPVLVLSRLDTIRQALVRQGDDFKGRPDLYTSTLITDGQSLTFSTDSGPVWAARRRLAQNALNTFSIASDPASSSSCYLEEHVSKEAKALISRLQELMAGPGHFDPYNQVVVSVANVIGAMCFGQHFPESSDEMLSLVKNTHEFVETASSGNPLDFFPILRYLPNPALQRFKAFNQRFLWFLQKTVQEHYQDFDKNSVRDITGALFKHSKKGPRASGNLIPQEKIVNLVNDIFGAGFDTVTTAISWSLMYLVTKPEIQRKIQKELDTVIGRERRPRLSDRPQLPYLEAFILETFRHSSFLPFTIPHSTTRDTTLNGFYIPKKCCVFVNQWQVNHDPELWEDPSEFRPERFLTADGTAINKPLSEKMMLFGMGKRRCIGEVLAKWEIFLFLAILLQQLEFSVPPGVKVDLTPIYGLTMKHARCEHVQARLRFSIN
Procedure: (§1) Efficacy Experimental Example 5: Inhibition of Cytochrome Oxidase P450
(§2) 100 mM K-Buffer: 9.5 mL of stock solution A was mixed with 40.5 mL of stock solution B, the total volume was adjusted to […] with ultrapure water, and the buffer was titrated to pH 7.4 with KOH or H3PO4.
(§3) The test substance powder was prepared into a stock solution at a certain concentration with DMSO or another organic solvent, which was then further diluted with a suitable organic solvent.
(§4) The liver microsomal in vitro incubation system for the CYP450 enzyme metabolism phenotype study was a biochemical reaction of prepared liver microsomes supplemented with a redox coenzyme and an enzyme-specific selective inhibitor under simulated physiological temperature and environment conditions.
(§5) The concentration of the parent drug or a metabolite thereof in the incubation solution was determined by LC-MS/MS.

[2] = target: T2, Cytochrome Oxidase P450 2C19 (Homo sapiens, UniProt P33261); test: Inhibition of cytochrome oxidase P450; assay type: in vitro ADME; details: liver microsomes
T2 construct: a biochemical reaction of prepared liver microsomes supplemented with a redox coenzyme; from tissue; host or cells: liver microsomes
Procedure: as §1, §2, §3, §4, §5

[3] = target: T3, Cytochrome Oxidase P450 2C9 (Homo sapiens, UniProt P11712); test: Inhibition of cytochrome oxidase P450; assay type: in vitro ADME; details: liver microsomes
T3 construct: a biochemical reaction of prepared liver microsomes supplemented with a redox coenzyme; from tissue; host or cells: liver microsomes
Procedure: as §1, §2, §3, §4, §5

[4] = target: T4, Cytochrome Oxidase P450 2D6 (Homo sapiens, UniProt P10635); test: Inhibition of cytochrome oxidase P450; assay type: in vitro ADME; details: liver microsomes
T4 construct: a biochemical reaction of prepared liver microsomes supplemented with a redox coenzyme; from tissue; host or cells: liver microsomes
Procedure: as §1, §2, §3, §4, §5

[5] = target: T5, Cytochrome Oxidase P450 3A4-M (Homo sapiens, UniProt P08684); test: Inhibition of cytochrome oxidase P450; assay type: in vitro ADME; details: liver microsomes
T5 construct: a biochemical reaction of prepared liver microsomes supplemented with a redox coenzyme; from tissue; host or cells: liver microsomes
Procedure: as §1, §2, §3, §4, §5

[6] = system: NCI-H2452 (NF2 wide-type); test: Inhibition of cell proliferation (CellTiter-Lumi); assay type: cell-based; details: Homo sapiens, 72 h + another 72 h treatment
NCI-H28 (NF2 wide-type) = test: Inhibition of cell proliferation (CellTiter-Lumi); assay type: cell-based; details: Homo sapiens, 72 h + another 72 h treatment
[7] = system: MSTO-211H (NF2 wide-type); test: Inhibition of cell proliferation (CellTiter-Lumi); assay type: cell-based; details: Homo sapiens, 72 h + another 72 h treatment
Procedure: NCI-H2052 (NF2 mutant), NCI-H226 (NF2 mutant), NCI-H2452 (NF2 wide-type), NCI-H28 (NF2 wide-type), and MSTO-211H (NF2 wide-type) cells were cultured in RPMI 1640 complete media.
The normally growing cells described above were digested with a trypsin cell-digesting solution, centrifuged, counted, and then plated in a 96-well plate at a density of 1000 cells per well. Administration was performed 24 h after the cell plating. Inhibitors at different concentration gradients were added at 10 µL per well, and three replicate wells were set for each concentration point. The starting concentration was 20 µM and diluted 8 times with a 4-fold gradient. A corresponding negative control group treated with 0.1% DMSO was also set up. After 72 h of drug treatment, the cell culture plate to be tested was taken out of the incubator. The culture medium in the 96-well plate was pipetted, and 190 µL of fresh RPMI 1640 complete medium was added. Another administration was performed, and the cells were cultured for another 72 h. The 96-well plate was taken out and allowed to equilibrate at room temperature for 10 min. The medium in the 96-well plate was pipetted, and 200 µL of CellTiter-Lumi™ luminescent cell viability detection solution (mixed with a medium in a ratio of 1:1) was added. After shaking for two minutes, the mixture was reacted at room temperature for 10 min. Then, 150 µL of liquid was pipetted from the transparent 96-well plate and transferred to a white 96-well plate for chemiluminescence reading. The background value was subtracted from the value for each well to calculate the cell survival rate. Survival rate (%) = […]. Sample is the chemiluminescence of the drug-treated group, and Vehicle is the […] of the DMSO control group. A sigmoidal dose-survival rate curve was plotted using a non-linear regression model in the GraphPad Prism 7.0 software, and the IC50 values or GI50 values were calculated.

in vivo = details: mouse, plasma, po
Procedure: After adding 5% DMSO, the mixture was vortexed. 15% HS15 was then added, and the mixture was vortexed again. Finally, a 10% aqueous cyclodextrin solution was added, and the resulting mixture was vortexed to prepare the final concentration solution or suspension.

T3 sequence (P11712 whole entry): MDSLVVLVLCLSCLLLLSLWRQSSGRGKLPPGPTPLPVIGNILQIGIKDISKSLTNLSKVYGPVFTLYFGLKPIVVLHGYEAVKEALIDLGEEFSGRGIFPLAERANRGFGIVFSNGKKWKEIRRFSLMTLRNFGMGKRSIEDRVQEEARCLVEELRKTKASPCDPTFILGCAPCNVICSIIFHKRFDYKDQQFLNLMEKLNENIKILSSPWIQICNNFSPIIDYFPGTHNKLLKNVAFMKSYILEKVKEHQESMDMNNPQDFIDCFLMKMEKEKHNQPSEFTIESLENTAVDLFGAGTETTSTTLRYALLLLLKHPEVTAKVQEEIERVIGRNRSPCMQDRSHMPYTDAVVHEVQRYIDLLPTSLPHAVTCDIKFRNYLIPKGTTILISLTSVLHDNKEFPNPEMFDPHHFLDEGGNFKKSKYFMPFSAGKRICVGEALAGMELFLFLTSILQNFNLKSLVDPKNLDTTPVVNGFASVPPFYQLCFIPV
T4 sequence (P10635 whole entry): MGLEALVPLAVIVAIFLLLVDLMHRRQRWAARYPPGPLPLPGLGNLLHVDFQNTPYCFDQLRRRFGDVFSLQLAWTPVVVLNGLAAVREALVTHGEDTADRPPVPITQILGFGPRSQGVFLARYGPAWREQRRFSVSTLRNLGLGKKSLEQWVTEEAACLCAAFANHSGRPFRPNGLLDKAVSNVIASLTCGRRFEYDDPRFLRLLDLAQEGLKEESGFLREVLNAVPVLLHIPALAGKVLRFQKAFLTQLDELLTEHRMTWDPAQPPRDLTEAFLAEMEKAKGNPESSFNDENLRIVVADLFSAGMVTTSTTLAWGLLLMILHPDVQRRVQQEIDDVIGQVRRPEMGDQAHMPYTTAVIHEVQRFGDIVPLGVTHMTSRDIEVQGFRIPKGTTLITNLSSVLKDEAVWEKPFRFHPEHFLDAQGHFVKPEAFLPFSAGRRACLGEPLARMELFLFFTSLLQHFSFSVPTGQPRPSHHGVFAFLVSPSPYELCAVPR
T2 sequence (P33261 whole entry): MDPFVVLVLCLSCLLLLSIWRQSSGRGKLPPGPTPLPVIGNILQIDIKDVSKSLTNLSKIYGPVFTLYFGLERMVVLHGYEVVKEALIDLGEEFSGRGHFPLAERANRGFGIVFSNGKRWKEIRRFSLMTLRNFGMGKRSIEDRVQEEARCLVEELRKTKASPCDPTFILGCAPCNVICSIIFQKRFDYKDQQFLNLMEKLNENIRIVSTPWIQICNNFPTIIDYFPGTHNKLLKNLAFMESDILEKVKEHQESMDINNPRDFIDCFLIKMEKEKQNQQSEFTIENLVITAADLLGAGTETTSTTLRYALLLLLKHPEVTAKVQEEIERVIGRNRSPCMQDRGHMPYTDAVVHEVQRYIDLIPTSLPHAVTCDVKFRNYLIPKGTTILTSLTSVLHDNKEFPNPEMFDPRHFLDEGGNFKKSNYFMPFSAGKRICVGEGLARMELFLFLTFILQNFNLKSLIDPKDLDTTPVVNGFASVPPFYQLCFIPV
T5 sequence (P08684 whole entry): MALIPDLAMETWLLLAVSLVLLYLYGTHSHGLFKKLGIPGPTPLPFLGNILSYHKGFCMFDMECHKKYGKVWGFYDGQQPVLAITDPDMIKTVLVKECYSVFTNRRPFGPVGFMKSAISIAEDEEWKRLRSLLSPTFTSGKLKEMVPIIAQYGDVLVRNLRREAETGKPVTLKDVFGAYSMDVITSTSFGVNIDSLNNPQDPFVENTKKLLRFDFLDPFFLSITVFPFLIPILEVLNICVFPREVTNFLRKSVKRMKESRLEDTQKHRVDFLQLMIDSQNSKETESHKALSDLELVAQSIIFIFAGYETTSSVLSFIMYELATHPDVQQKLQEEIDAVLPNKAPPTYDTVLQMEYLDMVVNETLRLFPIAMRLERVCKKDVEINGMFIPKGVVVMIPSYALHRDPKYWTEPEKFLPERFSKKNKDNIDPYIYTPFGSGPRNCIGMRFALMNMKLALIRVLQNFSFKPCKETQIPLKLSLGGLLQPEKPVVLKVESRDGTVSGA

Structure (SMILES): CP(C)(=O)c1ccc2c(c1)c1ccccc1n2-c1ccc(C(F)(F)F)cc1 [Example 1]
IC50 [1]: > 10 µM
IC50 [2]: > 10 µM
IC50 [3]: > 10 µM
IC50 [4]: > 10 µM
IC50 [5]: > 10 µM

IC50 [6]: > 20 µM
IC50 (NCI-H28 (NF2 wide-type)): > 1.25 µM
Structure (SMILES): CP(C)(=O)c1ccc2c(c1)c1cccnc1n2-c1ccc(C(F)(F)F)cc1 [Example 5]
IC50 [7]: > 5 µM

Structure (SMILES): CP(C)(=O)c1ccc2c(Oc3ccc(C(F)(F)F)cc3)cccc2c1 [Example 7]
IC50 [1]: > 10 µM
IC50 [2]: > 10 µM
IC50 [3]: > 10 µM
IC50 [4]: > 10 µM
IC50 [5]: > 10 µM
AUC(0-t) (in vivo; 100 mg/kg): 2830 µM·h

Structure (SMILES): Cn1cnc(-c2cc(P(C)(C)=O)cnc2Nc2ccc(C(F)(F)F)cc2)c1 [Example 8]
IC50 [1]: > 10 µM
IC50 [2]: > 10 µM
IC50 [3]: > 10 µM
IC50 [4]: > 10 µM
IC50 [5]: > 10 µM
AUC(0-t) (in vivo; 200 mg/kg): 2430 µM·h

IC50 [6]: > 5 µM
IC50 (NCI-H28 (NF2 wide-type)): > 1.25 µM
AUC(0-t) (in vivo; 200 mg/kg): 3380 µM·h
Cmax (in vivo; 200 mg/kg): 148 µM
Structure (SMILES): CP(C)(=O)c1ccc(Nc2ccc(C(F)(F)F)cc2)c(-c2ccccn2)c1 [Example 10]
IC50 [7]: > 1.25 µM

IC50 [6]: > 20 µM
IC50 (NCI-H28 (NF2 wide-type)): > 5 µM
Structure (SMILES): CP(C)(=O)c1ccc(Nc2ccc(C(F)(F)F)cc2)c(-c2ncccn2)c1 [Example 12]
IC50 [7]: > 20 µM

Structure (SMILES): Cn1cnc(-c2cc(P(C)(C)=O)ccc2Nc2ccc(C(F)(F)F)cc2)c1 [Example 14]
IC50 [1]: > 10 µM
IC50 [2]: > 10 µM
IC50 [3]: > 10 µM
IC50 [4]: > 10 µM
IC50 [5]: > 10 µM
AUC(0-t) (in vivo; 200 mg/kg): 3140 µM·h
Cmax (in vivo; 200 mg/kg): 141 µM

Structure (SMILES): CP(C)(=O)c1cnc(Nc2ccc(C(F)(F)F)cc2)c(-c2cn3c(n2)CCC3)c1 [Example 22]
IC50 [1]: > 10 µM
IC50 [2]: > 10 µM
IC50 [3]: > 10 µM
IC50 [4]: > 10 µM
IC50 [5]: > 10 µM
AUC(0-t) (in vivo; 200 mg/kg): 2520 µM·h
